Tests used:
Assay type in all cases: in vivo
wheat [1] = assay: Greenhouse trial: bioefficacy enhancing effect of surfactants on glyphosate, wheat (Example 23); conditions: 300 g ae/HA IPA-glyphosate sprayed on wheat; 360 g/L IPA formulation with 10% active surfactant; 4 weeks after treatment; from fresh weight
Description: (§1) A greenhouse trial was conducted by spraying solutions of 300 g ae/HA of IPA-glyphosate on wheat. The glyphosate formulation was based on 360 g/L IPA containing 10% active surfactant. Wheat was used as the “weed” because it germinates smoothly and it is a good species for herbicide study. The untreated check (UTC) was sprayed with only water. Pot 150 was sprayed with glyphosate only solution. Pot 149 was sprayed with glyphosate solution containing tallowamine-15EO (TAE15). TAE15 is the most common surfactant used to enhance glyphosate efficacy.
Plants were sprayed with glyphosate solutions containing surfactant according to the present invention. Table below lists the various surfactants and their corresponding pots. Percent growth control data for 4 weeks after treatment is also shown in this table as well. Percent growth control data was obtained from the fresh weight of these plants. The data clearly indicates glyphosate solutions containing surfactant according to the present invention provides better growth control than glyphosate only, thus acting as an adjuvant. In many cases the adjuvancy is equal to that of TAE15.

wheat [2] = assay: Greenhouse trial: hydroxylated soybean oil derivatives with glyphosate, wheat, visual inspection (Example 24); conditions: 300 g ae/HA IPA-glyphosate sprayed on wheat, 10% active surfactant, 4 weeks after treatment
Description: as §1
A separate set of test was conducted for these surfactants. The condition and treatment of example 24 was identical to example 23. […] In this case % growth control is a qualitative data obtained by visual inspection of the plants. The data clearly indicates glyphosate solutions containing surfactant according to the present invention provides enhanced growth control than glyphosate only, thus acting as an adjuvant.

morning glory = assay: Greenhouse trial: castor oil ethoxylate derivatives with glyphosate, morning glory (Example 25); conditions: 300 g ae/HA glyphosate; 4 weeks after treatment; ranking from picture
Description: as §1
The condition and treatment of example 25 was identical to example 23 except that example 25 used morning glory instead of wheat.

In the case of `CC(C)N.O=C(O)CNCP(=O)(O)O` [IPA Glyphosate alone, IPA-glyphosate], the “% Growth Control” value (wheat [1]) is reported as 66%, the “% Growth Control (qualitative)” value (wheat [2]) is reported as 55% and the “morningglory control compared with tallowamine-15EO” value (morning glory) is reported as “didn't show much control”.

— patent US10000437B2, “Nitrogen containing surfactants with alkoxylation on the hydroxyl group of fatty chains” (Akzo Nobel Chemicals International B.V., priority 2013, dated 2018)
